“And” between values parts separate entries of the source, which are not always exact repeats. Equal entries are not always repeated. Structures can show the parent of a compound that is named as a salt. Where two headings read alike, the source gives them in different places.
How the values were obtained:
rat VMAT2 = rat VMAT2 (Rattus norvegicus, UniProt Q01827); assay: FFN206 uptake assay in transfected Hek293 cells; conditions: for VMAT2-specific FFN206 uptake relative to DMSO (=1), replicate samples: Fig. 2a source data, 25 μM compound
VMAT2 [1] = molecular target: T1, VMAT2 (Rattus norvegicus, UniProt Q01827); assay: [3H]-DTBZ competition assay in Hek293 cells expressing VMAT2; conditions: 50 μM compound;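 also: HEK293 cells transfected with VMAT2, pretreated 30 min with compound, then given 5 nM [3H]-DTBZ for 20 min at 37 °C, bound label read by scintillation counting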
rat VMAT2-His = molecular target: T2, rat VMAT2-His (Rattus norvegicus, UniProt Q01827); assay: Differential scanning fluorimetry (DSF) with CPM dye: change of melting temperature of purified VMAT2; assay type: binding; conditions: for ΔTm: Table 1, DSF screening, mean ± SD of triplicates; for ΔTm at 12 µM / ΔTm at 37 µM / ΔTm at 10 µM / ΔTm at 30 µM / ΔTm at 90 µM / ΔTm at 270 µM / ΔTm at 11 µM / ΔTm at 33 µM: Table S2 dose response, read-out: ΔTm; for ΔTm at 12 µM: compound 0,12 µM; for ΔTm at 37 µM: compound 0,37 µM; for ΔTm at 10 µM: compound 10 µM; for ΔTm at 30 µM: compound 30 µM; for ΔTm at 90 µM: compound 90 µM; for ΔTm at 270 µM: compound 270 µM; for ΔTm at 11 µM: compound 1,11 µM; for ΔTm at 33 µM: compound 3,33 µM
T2 construct: The ORF of rat VMAT2 was subcloned into a pFastBac vector; His; made in house; host or cells: Sf9 insect cells (baculovirus)
Method: To screen purified VMAT2 by DSF we expressed the rat VMAT2 protein, as VMAT2-His, in SF9 insect cells using the baculovirus expression system. The transporter was solubilized and purified in n-Dodecyl-β-D-maltoside (DDM)/cholesterol hemisuccinate (CHS) micelles by immobilized metal affinity chromatography (IMAC) and size exclusion chromatography (SEC). […] Screening was performed using DSF and the thiol-reactive dye 7-diethylamino-3-(4-maleimidophenyl)-4-methylcoumarin (CPM), an approach that monitors changes to the protein melting temperature (Tm) upon compound binding. Using CPM or other dyes, DSF-based assays have successfully been used in molecular-based screenings[34],[35]. […] DSF screening was performed in 384 well plates using the thiol-sensing dye 7-diethylamino-3-(4-maleimidophenyl)-4-methylcoumarin (CPM) (Merck). […] Protein melting curves were determined using a LightCycler 480 ii RT-PCR system (Roche), with a temperature ramp increasing from 25 to 95 °C at a rate of 2 °C/min. Data analysis was performed using an in-house software that automatically determines the protein midpoint melting temperature (Tm) based on the second derivative of the melting curves or using the HTSDSF explorer as described in ref. [58]. […] 6 μl of this mix was dispensed to each well of 384 well plates using a Multidrop™ Combi Reagent Dispenser (Thermo Scientific). […] All initial hits were then subjected to an initial validation in triplicates with a compound concentration of 200 μM and a ΔTm > 5× the standard deviation (SD) cut off. […] Processing of the data from the primary screening and the concentration-dependent validation was performed as reported.

VMAT2 [2] = molecular target: T1, VMAT2; conditions: hek293 cells, 50 µM
rat VMAT2 variants = conditions: cited from earlier work
human VMAT2 = molecular target: T3, human VMAT2 (Homo sapiens, UniProt Q05940); assay: FFN206 uptake assay in transfected Hek293 cells; assay type: cell-based; conditions: Table S1, substrate uptake assays in transfected Hek293 cells
T3 construct: expressed in transfected cells; host or cells: Hek293 cells, transient

human VMAT1 = molecular target: T4, human VMAT1 (Homo sapiens, UniProt P54219); assay: FFN206 uptake assay in transfected Hek293 cells; assay type: cell-based; conditions: Table S1, substrate uptake assays in transfected Hek293 cells
T4 construct: expressed in transfected cells; host or cells: Hek293 cells, transient
T4 sequence (P54219 1-525): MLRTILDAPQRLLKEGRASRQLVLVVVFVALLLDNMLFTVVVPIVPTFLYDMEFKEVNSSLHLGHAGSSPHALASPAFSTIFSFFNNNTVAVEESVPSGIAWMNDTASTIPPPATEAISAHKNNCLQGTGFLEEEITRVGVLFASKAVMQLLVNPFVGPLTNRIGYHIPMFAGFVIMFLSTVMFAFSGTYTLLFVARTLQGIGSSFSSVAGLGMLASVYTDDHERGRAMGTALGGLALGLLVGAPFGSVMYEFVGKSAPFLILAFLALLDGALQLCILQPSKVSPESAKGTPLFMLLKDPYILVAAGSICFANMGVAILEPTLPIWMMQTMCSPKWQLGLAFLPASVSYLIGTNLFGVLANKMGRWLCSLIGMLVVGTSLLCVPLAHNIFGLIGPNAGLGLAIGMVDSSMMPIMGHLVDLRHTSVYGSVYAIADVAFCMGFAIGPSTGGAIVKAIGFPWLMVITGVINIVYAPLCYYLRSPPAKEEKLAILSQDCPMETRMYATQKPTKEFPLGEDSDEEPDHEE

T2 sequence (Q01827 whole entry): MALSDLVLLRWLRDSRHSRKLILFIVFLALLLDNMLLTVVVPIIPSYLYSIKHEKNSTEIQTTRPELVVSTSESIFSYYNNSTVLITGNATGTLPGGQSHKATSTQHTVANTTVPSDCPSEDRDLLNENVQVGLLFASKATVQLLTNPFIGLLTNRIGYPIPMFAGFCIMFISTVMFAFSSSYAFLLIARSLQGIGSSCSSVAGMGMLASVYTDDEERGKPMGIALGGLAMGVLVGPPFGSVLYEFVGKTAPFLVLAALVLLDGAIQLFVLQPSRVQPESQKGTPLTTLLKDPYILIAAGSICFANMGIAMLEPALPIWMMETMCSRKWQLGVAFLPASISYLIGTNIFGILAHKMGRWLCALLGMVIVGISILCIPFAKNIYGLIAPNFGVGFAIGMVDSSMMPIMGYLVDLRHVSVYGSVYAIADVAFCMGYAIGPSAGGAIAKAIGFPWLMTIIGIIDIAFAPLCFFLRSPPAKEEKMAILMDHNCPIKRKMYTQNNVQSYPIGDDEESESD
T1 sequence (Q01827 whole entry): as above
rat VMAT2, sequence (Q01827 whole entry): as above
T3 sequence (Q05940 whole entry): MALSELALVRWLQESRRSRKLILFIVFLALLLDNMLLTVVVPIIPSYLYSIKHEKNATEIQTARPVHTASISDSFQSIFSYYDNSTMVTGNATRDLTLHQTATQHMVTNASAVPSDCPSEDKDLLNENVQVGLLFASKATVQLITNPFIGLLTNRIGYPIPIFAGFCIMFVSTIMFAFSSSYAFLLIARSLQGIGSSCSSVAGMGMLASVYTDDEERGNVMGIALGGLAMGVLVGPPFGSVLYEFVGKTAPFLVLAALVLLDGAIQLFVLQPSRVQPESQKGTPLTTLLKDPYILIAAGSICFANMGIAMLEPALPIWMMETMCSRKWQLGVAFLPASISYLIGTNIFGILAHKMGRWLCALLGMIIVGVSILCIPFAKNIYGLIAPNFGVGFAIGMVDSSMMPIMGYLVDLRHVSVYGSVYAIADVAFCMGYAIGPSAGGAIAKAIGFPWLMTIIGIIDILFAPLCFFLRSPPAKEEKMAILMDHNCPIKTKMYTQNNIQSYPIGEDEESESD

Row | Compound | IC50 (rat VMAT2) [nM] | effect on [3H]-DTBZ binding compared with DMSO control (one-way ANOVA, p < 0.001) (VMAT2 [1]) | ΔTm (rat VMAT2-His) [oC] | activity (VMAT2 [2]) [%] | ΔTm at 12 µM (rat VMAT2-His) [°C] | ΔTm at 37 µM (rat VMAT2-His) [°C] | ΔTm at 10 µM (rat VMAT2-His) [°C] | ΔTm at 30 µM (rat VMAT2-His) [°C] | ΔTm at 90 µM (rat VMAT2-His) [°C] | ΔTm at 270 µM (rat VMAT2-His) [°C] | ΔTm at 11 µM (rat VMAT2-His) [°C] | ΔTm at 33 µM (rat VMAT2-His) [°C] | VMAT2-specific FFN206 uptake relative to DMSO (=1), replicate samples (rat VMAT2) | other results
1 | COc1ccccc1OCCNCC(O)COc1cccc2[nH]c3ccccc3c12 (stereo not drawn) [Carvedilol] | 185 ± 157 | statistically significantly effect | −2.54 ± 0.19 | 3.22 ± 3.37 | – | – | – | – | – | – | – | – | – | FFN206 uptake relative to no compound (=1), replicate samples (rat VMAT2; Fig. 2b/2c source data, compound 0.0152 μM, listed as Carvediol): 0.766 and 0.8971 and 0.7075 and 0.9947; FFN206 uptake relative to no compound (=1), replicate samples (rat VMAT2; Fig. 2b/2c source data, compound 0.1372 μM, listed as Carvediol): 0.4929 and 0.5853 and 0.5773 and 0.7378; FFN206 uptake relative to no compound (=1), replicate samples (rat VMAT2; Fig. 2b/2c source data, compound 0.4115 μM, listed as Carvediol): 0.3687 and 0.2376 and 0.3168 and 0.3398; FFN206 uptake relative to no compound (=1), replicate samples (rat VMAT2; Fig. 2b/2c source data, compound 1.2346 μM, listed as Carvediol): 0.1087 and 0.07344; FFN206 uptake relative to no compound (=1), replicate samples (rat VMAT2; Fig. 2b/2c source data, compound 3.7037 μM, listed as Carvediol): 0.1063 and 0.05759 and 0.1334 and 0.2157; FFN206 uptake relative to no compound (=1), replicate samples (rat VMAT2; Fig. 2b/2c source data, compound 11.1111 μM, listed as Carvediol): 0.1084 and -0.01428 and 0.1171 and 0.3099; FFN206 uptake relative to no compound (=1), replicate samples (rat VMAT2; Fig. 2b/2c source data, compound 100.0000 μM, listed as Carvediol): -0.01159 and -0.1032 and -0.03855; FFN206 uptake relative to no compound (=1), replicate samples (rat VMAT2; Fig. 2c source data, compound 0.0017 μM, listed as Carvediol): 0.7452 and 0.9945 and 0.9725 and 0.9441
2 | [3H]‐tetrabenazine | – | – | – | – | – | – | – | – | – | – | – | – | – | [3H]-tetrabenazine binding (rat VMAT2 variants): no TBZ binding; [3H]-tetrabenazine binding: reduction (rat VMAT2 variants): > 90%; [3H]-tetrabenazine binding: reduction in binding (rat VMAT2 variants): 50%; [3H]-tetrabenazine binding (rat VMAT2 variants; variant E313D, ref [3, 4]): no binding
3 | COc1ccc(CN2CCN(C(c3ccc(F)cc3)c3ccc(F)cc3)CC2)c(OC)c1OC [Lomerizine, Lomerizine hydrochloride] | 3900 ± 1690 | no statistically significant effect | −7.51 ± 0.04 | 113 ± 23.2 | -0.81 | -0.99 | -2.21 | -1.43 | -2.04 | -5.36 | -1.46 | -1.47 | 0.1198 and 0.07933 and 0.1667 and 0.07626 | –
4 | COc1ccc2[nH]c([S+]([O-])Cc3ncc(C)c(OC)c3C)nc2n1 (stereo not drawn) [Tenatoprazole] | > 10000 | no statistically significant effect | 7.36 ± 0.41 | 87.5 ± 8.53 | 0.38 | 0.24 | 4.77 | 6.25 | 6.56 | 6.79 | 1.3 | 4.85 | 0.8521 and 0.6659 and 1.063 and 0.8968 | inhibition at 25 µM (rat VMAT2; HEK293, read-out: inhibitory effect on VMAT2 activity): ≤ 50%

Second part, led by results:

Row | IC50 (rat VMAT2) [nM] | effect on [3H]-DTBZ binding compared with DMSO control (one-way ANOVA, p < 0.001) (VMAT2 [1]) | ΔTm (rat VMAT2-His) [oC] | activity (VMAT2 [2]) [%] | ΔTm at 12 µM (rat VMAT2-His) [°C] | ΔTm at 37 µM (rat VMAT2-His) [°C] | ΔTm at 10 µM (rat VMAT2-His) [°C] | ΔTm at 30 µM (rat VMAT2-His) [°C] | ΔTm at 90 µM (rat VMAT2-His) [°C] | ΔTm at 270 µM (rat VMAT2-His) [°C] | ΔTm at 11 µM (rat VMAT2-His) [°C] | ΔTm at 33 µM (rat VMAT2-His) [°C] | Compound | VMAT2-specific FFN206 uptake relative to DMSO (=1), replicate samples (rat VMAT2) | other results
5 | 372 ± 195 | statistically significantly effect | −1.26 ± 0.15 | 31.6 ± 4.76 | – | – | – | – | – | – | – | – | CCc1cc2c(cc1CC)CC(NC[C@H](O)c1ccc(O)c3[nH]c(=O)ccc13)C2 [Indacaterol] | – | FFN206 uptake relative to no compound (=1), replicate samples (rat VMAT2; Fig. 2b/2c source data, compound 0.0152 μM, listed as Indacterol): 1.046 and 0.9873 and 0.9954 and 1.047; FFN206 uptake relative to no compound (=1), replicate samples (rat VMAT2; Fig. 2b/2c source data, compound 0.1372 μM, listed as Indacterol): 0.9052 and 0.9503 and 0.5975 and 0.7395; FFN206 uptake relative to no compound (=1), replicate samples (rat VMAT2; Fig. 2b/2c source data, compound 0.4115 μM, listed as Indacterol): 0.655 and 0.7802 and 0.5475 and 0.5896; FFN206 uptake relative to no compound (=1), replicate samples (rat VMAT2; Fig. 2b/2c source data, compound 1.2346 μM, listed as Indacterol): 0.389 and 0.3824 and 0.2984 and 0.2513; FFN206 uptake relative to no compound (=1), replicate samples (rat VMAT2; Fig. 2b/2c source data, compound 3.7037 μM, listed as Indacterol): 0.2198 and 0.2721 and 0.1271 and 0.01615; FFN206 uptake relative to no compound (=1), replicate samples (rat VMAT2; Fig. 2b/2c source data, compound 11.1111 μM, listed as Indacterol): 0.3236 and 0.15 and 0.08791 and -0.0508; FFN206 uptake relative to no compound (=1), replicate samples (rat VMAT2; Fig. 2b/2c source data, compound 100.0000 μM, listed as Indacterol): 0.1623 and 0.1126 and 0.06583 and 0.01394; FFN206 uptake relative to no compound (=1), replicate samples (rat VMAT2; Fig. 2c source data, compound 0.0017 μM, listed as Indacterol): 0.9404 and 1.104 and 0.8827 and 0.8866
6 | – | – | 8.17 ± 0.14 | – | 4.89 | 5.05 | 6.86 | 4.27 | 4.64 | 5.17 | 5.52 | 5.92 | COc1cc2c(cc1OC)C1CC(=O)C(CC(C)C)CN1CC2 (stereo not drawn) [Tetrabenazine] | – | IC50 (human VMAT2): 18 nM; IC50 (human VMAT1): > 100000 nM
